Test [1] addresses T1, Tissue alpha-L-fucosidase (Bos taurus) (UniProt Q2KIM0).
T1 sequence (whole entry): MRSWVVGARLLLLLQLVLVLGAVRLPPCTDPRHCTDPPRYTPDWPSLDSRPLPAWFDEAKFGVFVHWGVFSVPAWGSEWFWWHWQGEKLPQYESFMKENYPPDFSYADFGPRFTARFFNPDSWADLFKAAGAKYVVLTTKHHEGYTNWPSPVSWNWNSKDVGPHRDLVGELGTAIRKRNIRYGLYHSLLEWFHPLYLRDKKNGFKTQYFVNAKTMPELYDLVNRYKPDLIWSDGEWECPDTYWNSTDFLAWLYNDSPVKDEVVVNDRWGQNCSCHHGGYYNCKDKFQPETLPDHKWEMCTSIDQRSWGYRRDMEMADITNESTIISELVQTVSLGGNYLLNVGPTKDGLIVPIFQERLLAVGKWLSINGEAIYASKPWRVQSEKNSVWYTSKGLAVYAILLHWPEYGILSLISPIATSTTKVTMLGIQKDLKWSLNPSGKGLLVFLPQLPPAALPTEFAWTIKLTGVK
Nature of the test: Inhibition of bovine kidney alpha-L-fucosidase assessed as reduction of p-nitrophenol release using p-nitrophenyl glycoside as substrate at 1000 uM by spectrophotometric analysis relative to control.

Test [2] can be described thus: Inhibition of human lysosomal beta-glucosidase assessed as reduction of p-nitrophenol release using p-nitrophenyl glycoside as substrate by spectrophotometric analysis.
The species named for another test is Sus scrofa. Nature of the test: Inhibition of porcine kidney alpha/alpha-trehalase assessed as reduction of p-nitrophenol release using p-nitrophenyl glycoside as substrate at 1000 uM by spectrophotometric analysis relative to control.
Test [3] has as its target Alpha-glucosidase (Saccharomyces cerevisiae S288c) (UniProt P53341+P38158+P07265). Nature of the test: Inhibition of yeast alpha-glucosidase assessed as reduction of p-nitrophenol release using p-nitrophenyl glycoside as substrate at 1000 uM by spectrophotometric analysis relative to control. Type of test: protein assay.
Test [4] can be described thus: Inhibition of bovine liver beta-galactosidase assessed as reduction of p-nitrophenol release using p-nitrophenyl glycoside as substrate by spectrophotometric analysis. The arrangement: species or system Bos taurus.
In test [5] the target is Beta-glucuronidase (Escherichia coli (strain K12)) (UniProt P05804). As to the kind of experiment: Inhibition of Escherichia coli beta-glucuronidase assessed as reduction of p-nitrophenol release using p-nitrophenyl-glycoside as substrate at 1000 uM by spectrophotometric analysis relative to control.
For test [6], the target named is Alpha-galactosidase (Coffea arabica) (UniProt Q42656). As to the kind of experiment: Inhibition of coffee beans alpha-galactosidase assessed as reduction of p-nitrophenol release using p-nitrophenyl glycoside as substrate at 1000 uM by spectrophotometric analysis relative to control.
The next test deals with Helix pomatia. As to the kind of experiment: Inhibition of snail beta-mannosidase assessed as reduction of p-nitrophenol release using p-nitrophenyl glycoside as substrate at 1000 uM by spectrophotometric analysis relative to control.
A further test concerns Penicillium decumbens. As to the kind of experiment: Inhibition of Penicillium decumbens alpha-L-rhamnosidase assessed as reduction of p-nitrophenol release using p-nitrophenyl-glycoside as substrate at 1000 uM by spectrophotometric analysis relative to control.
The nature of test [7]: Inhibition of rice alpha-glucosidase assessed as reduction of p-nitrophenol release using p-nitrophenyl glycoside as substrate by spectrophotometric analysis. The arrangement: species or system Oryza sativa.
For test [8], the species on record is Bos taurus. Nature of the test: Inhibition of bovine liver beta-glucosidase assessed as reduction of p-nitrophenol release using p-nitrophenyl glycoside as substrate at 1000 uM by spectrophotometric analysis relative to control.
Test [9] in a line: Inhibition of rat intestinal maltase assessed as D-glucose release using maltose as substrate at pH 6.8 by colorimetric method.
A short description of test [10]: Inhibition of bovine liver beta-glucuronidase assessed as reduction of p-nitrophenol release using p-nitrophenyl-glycoside as substrate by spectrophotometric analysis. Details: species or system Bos taurus.
The test system of a further test is Prunus dulcis. Nature of the test: Inhibition of almond beta-glucosidase assessed as reduction of p-nitrophenol release using p-nitrophenyl glycoside as substrate at 1000 uM by spectrophotometric analysis relative to control.
The subject of another test is Aspergillus niger. As to the kind of experiment: Inhibition of Aspergillus niger amyloglucosidase assessed as reduction of p-nitrophenol release using p-nitrophenyl-glycoside as substrate at 1000 uM by spectrophotometric analysis relative to control.
Test [11] has as its target T2, Alpha-mannosidase (Canavalia ensiformis) (UniProt C0HJB3).
T2 sequence (whole entry): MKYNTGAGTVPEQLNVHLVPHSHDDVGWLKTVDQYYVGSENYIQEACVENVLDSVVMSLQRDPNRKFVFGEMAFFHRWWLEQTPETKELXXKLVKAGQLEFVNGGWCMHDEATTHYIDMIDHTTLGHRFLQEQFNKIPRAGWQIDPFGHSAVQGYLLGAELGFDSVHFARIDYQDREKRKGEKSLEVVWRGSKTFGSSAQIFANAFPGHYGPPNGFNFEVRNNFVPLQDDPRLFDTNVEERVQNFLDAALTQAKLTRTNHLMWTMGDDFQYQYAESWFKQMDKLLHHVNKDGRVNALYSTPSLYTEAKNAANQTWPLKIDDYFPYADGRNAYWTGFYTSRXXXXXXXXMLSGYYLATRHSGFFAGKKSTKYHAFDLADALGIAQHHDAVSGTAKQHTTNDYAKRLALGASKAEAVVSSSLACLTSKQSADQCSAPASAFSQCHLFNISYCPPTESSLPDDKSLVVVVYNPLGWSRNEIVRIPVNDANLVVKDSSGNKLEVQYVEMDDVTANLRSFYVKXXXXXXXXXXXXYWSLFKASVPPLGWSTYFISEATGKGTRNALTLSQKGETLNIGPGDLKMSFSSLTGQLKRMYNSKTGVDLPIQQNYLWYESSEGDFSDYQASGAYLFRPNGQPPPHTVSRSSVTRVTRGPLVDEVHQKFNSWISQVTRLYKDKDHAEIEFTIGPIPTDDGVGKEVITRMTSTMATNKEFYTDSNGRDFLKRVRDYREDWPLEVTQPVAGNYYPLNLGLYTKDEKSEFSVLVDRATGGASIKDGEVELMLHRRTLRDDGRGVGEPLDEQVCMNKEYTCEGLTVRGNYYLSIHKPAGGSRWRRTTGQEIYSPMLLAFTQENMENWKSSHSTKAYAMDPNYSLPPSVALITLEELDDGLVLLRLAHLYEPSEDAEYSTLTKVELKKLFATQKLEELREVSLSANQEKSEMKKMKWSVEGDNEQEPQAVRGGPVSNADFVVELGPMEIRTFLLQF
As to the kind of experiment: Inhibition of jack bean alpha-mannosidase assessed as reduction of p-nitrophenol release using p-nitrophenyl glycoside as substrate at 1000 uM by spectrophotometric analysis relative to control.

Test [12] in a line: Inhibition of almond beta-glucosidase assessed as reduction of p-nitrophenol release using p-nitrophenyl glycoside as substrate by spectrophotometric analysis. The arrangement: species or system Prunus dulcis.
For test [13], the target named is T3, Tissue alpha-L-fucosidase (Bos taurus, UniProt Q2KIM0).
T3 sequence (Q2KIM0 whole entry): T1 sequence (whole entry)
As to the kind of experiment: Inhibition of bovine kidney alpha-L-fucosidase assessed as reduction of p-nitrophenol release using p-nitrophenyl glycoside as substrate by spectrophotometric analysis.

The species named for test [14] is Bos taurus. Nature of the test: Inhibition of bovine liver beta-glucuronidase assessed as reduction of p-nitrophenol release using p-nitrophenyl-glycoside as substrate at 1000 uM by spectrophotometric analysis relative to control.
A short description of test [15]: Inhibition of bovine liver beta-glucosidase assessed as reduction of p-nitrophenol release using p-nitrophenyl glycoside as substrate by spectrophotometric analysis. Details: species or system Bos taurus.
The target of another test is Alpha-glucosidase (Saccharomyces cerevisiae S288c, UniProt P53341+P38158+P07265). Nature of the test: Inhibition of yeast alpha-glucosidase assessed as reduction of p-nitrophenol release using p-nitrophenyl glycoside as substrate by spectrophotometric analysis. Type of test: protein assay.
The nature of test [16]: Inhibition of Penicillium decumbens alpha-L-rhamnosidase assessed as reduction of p-nitrophenol release using p-nitrophenyl-glycoside as substrate by spectrophotometric analysis.
The target in the next test is Beta-glucuronidase (Escherichia coli (strain K12), UniProt P05804). Nature of the test: Inhibition of Escherichia coli beta-glucuronidase assessed as reduction of p-nitrophenol release using p-nitrophenyl-glycoside as substrate by spectrophotometric analysis.
Test [17] in a line: Inhibition of human beta-glucosidase.

The values below come from ChEMBL document CHEMBL5331098, “Nanomolar β-glucosidase and β-galactosidase inhibition by enantiomeric α-1-C-alkyl-1,4-dideoxy-1,4-imino-arabinitol derivatives” (Eur J Med Chem, 2023).

Usually inhibition stands for the drop in the measured response relative to a control, in per cent. By pIC50 is commonly meant the negative decadic logarithm of the IC50, by convention in mol/L. As usually defined, the IC50 is the point on the concentration scale where inhibition reaches its midpoint.

Molecules are shown by their SMILES. pIC50: −log10 of the molar value.

Chain of Alpha-galactosidase (Coffea arabica) (Q42656 16-378 limits assumed): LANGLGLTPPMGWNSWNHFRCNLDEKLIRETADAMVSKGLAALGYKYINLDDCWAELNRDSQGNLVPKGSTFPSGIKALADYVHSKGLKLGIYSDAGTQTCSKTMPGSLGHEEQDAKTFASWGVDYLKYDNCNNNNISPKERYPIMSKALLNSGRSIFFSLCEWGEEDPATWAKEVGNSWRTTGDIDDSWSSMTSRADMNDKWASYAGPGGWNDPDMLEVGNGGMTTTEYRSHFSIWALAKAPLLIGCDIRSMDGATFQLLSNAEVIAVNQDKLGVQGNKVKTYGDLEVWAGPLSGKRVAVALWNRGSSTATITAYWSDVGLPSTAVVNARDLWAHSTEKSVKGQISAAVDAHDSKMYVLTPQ
Chain of Beta-glucuronidase (Escherichia coli (strain K12)) (P05804 whole entry, looked up): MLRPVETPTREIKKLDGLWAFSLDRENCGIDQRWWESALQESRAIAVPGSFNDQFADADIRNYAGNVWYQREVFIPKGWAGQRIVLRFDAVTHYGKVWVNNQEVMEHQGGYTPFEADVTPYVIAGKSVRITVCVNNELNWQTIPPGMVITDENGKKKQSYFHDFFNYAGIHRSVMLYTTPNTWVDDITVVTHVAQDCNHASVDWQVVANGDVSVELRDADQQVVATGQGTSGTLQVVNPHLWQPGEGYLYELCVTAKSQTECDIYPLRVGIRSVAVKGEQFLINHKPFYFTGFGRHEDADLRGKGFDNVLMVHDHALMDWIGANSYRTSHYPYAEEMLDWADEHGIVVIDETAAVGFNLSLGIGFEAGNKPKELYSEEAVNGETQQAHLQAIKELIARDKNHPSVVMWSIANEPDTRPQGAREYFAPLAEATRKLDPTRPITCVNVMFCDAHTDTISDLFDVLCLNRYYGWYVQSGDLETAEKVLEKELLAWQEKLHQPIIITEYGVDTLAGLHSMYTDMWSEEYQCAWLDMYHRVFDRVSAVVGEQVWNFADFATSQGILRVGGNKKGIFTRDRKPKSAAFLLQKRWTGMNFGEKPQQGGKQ
Chain of Beta-glucuronidase (P05804 whole entry): as the sequence (P05804 whole entry, looked up) above

In the case of `Cc1ccc(CCCCCC[C@@H](O)[C@@H]2N[C@@H](CO)[C@H](O)[C@H]2O)cc1`, the inhibition in [1] came to 0%; in the test listed under Sus scrofa it was 0%; in [3], 37.6%; in test [5] it was 24.5%; in test [6], 1.6%; in the test on Helix pomatia, 0%. In addition, the inhibition in the test on Penicillium decumbens is 2.1%; in the test filed under Bos taurus [8], 45.4%; in the test with Prunus dulcis, 14.7%; with Aspergillus niger, 11.3%; in [11] it was 9.3%. Besides, the negative logarithm of the IC50 (pIC50) in test [2] was 4.60; in [4], 4.34; in test [7] it was 4.20; in test [9], 4.89; in test [10], 4.19.

For the compound `Cl.OC[C@@H]1N[C@@H](CCCCCCCc2ccccc2)[C@H](O)[C@H]1O`, the pIC50 in [12] was 3.69; in test [13], 4.04; in [15] it was 3.52; in [16] it was 3.39; in test [4] it was 4.80; in [7], 4.96. The pIC50 in [9] is 5.72; at Beta-glucuronidase it was 3.88. Besides, the inhibition in the test filed under Sus scrofa was determined as 5.6%; in the test listed under Bos taurus [14], 41.5%; in test [6] it was 12.1%; in the test with Helix pomatia, 6.7%; in the test on Aspergillus niger, 7.2%; in test [11], 14.7%. In addition, on Alpha-glucosidase, the IC50 stood at 802 µM.

With `CCCCCCCCCCCCCC1N[C@H](CO)[C@@H](O)[C@@H]1O` (some centres not stated), the negative logarithm of the IC50 (pIC50) in test [17] was 6.11.
